Source: patent US8138184B2, “Isoxazole derivatives and pharmaceutical compositions comprising the same” (Kaohsiung Medical University, priority 2008, dated 2012)

Tests used:
[1] = test system: Human adipose tissue derived stem cells (hADSCs); experiment: Cell viability by MTT assay in hADSCs; type: cell-based; conditions: 10 μM, % of control
Description: (§1) Human adipose tissue derived stem cells (hADSCs), which is derived from adipose tissue, were selected an maintained in a keratinocyte SFM medium (Gibco BRL, Gaithersburg, Md.) supplemented with 5% FBS, 100 U/ml of penicillin and streptomycin.
(§2) New synthetic compounds were dissolved in DMSO to a final concentration of 10 mM and stored at −20° C. The concentration used was 10 μM and freshly diluted to the medium with a final concentration of DMSO at 0.1%. Control cultures were treated with the same amount of DMSO as used in the corresponding experiments.
The MTT assay is a calorimetric assay based on the ability of the viable cells to reduce a soluble yellow tetrazolium salt to blue formazan crystals (Carmichael, J. et. el. Cancer Research 1987, 47, 936). After compound treatments, 350 μL of MTT solution ([…] in PBS) were added to each well and incubated for 4 hrs. DMSO was then added for another 0.5 hrs to thoroughly dissolve the dark blue crystals. The absorbance at 570 nm was measured with an ELISA reader. Inhibition of mitochondrial metabolism was shown as relative activity (% of control).

[2] = test system: Human adipose tissue derived stem cells (hADSCs); experiment: Cytotoxicity assay by lactate dehydrogenase (LDH) leakage in hADSCs; type: cell-based; conditions: 10 μM, % of total cell toxicity
Description: as §1, §2
Lactate dehydrogenase (LDH) leakage from cells was measured to quantify the cytotoxicity by using a cytotoxicity detection kit (Roche, Germany) (Crowston, J. G. et al Invest. Ophthalmol. Vis. Sci. 1998, 39, 449). Cells were previously seeded into 48-well plates (4×10^4 cells/well). After a drug treatment, the supernatants and cell layers of the cultures were collected for assay. According to the manufacturer's guidelines for the detection kit, cell layers were lysed with 1% TritonX-100, and cell lysates and supernatants were assayed in a 96-well plate, respectively. Briefly, 100 μL of catalyst solution was added in each assay well for 20 min. Absorbance was measured with an ELISA reader with a 490 nm filter. LDH leakage was shown as relative activity (% of total cell toxicity).

[3] = test system: Human adipose tissue derived stem cells (hADSCs); experiment: Osteogenic differentiation and quantification of mineralization (Alizarin red S) in hADSCs; type: cell-based; conditions: 10 μM, 10 days
Description: as §1, §2
Osteogenic differentiation was induced by culturing cells in an osteo-induction medium (OIM, 10% FBS, 0.1 μM dexamethasone, 10 mM β-glycerophosphate, and L-Ascorbic 2 phosphate 100 μM in low glucose DMEM) for 7-14 days. The extracellular matrix calcification was estimated by using an Alizarin red S stain (Carl, A. et al Anal. Biochem. 2004, 329, 77). The Alizarin red S-stained mineral was quantified by the osteogenesis quantification kit (CHEMICON®).

[4] = test system: MCF-7 cells (human breast adenocarcinoma); experiment: Cytotoxicity assay (MTS reduction), MCF-7; type: cell-based; conditions: 3 days, % of DMSO control
Description: (§3) MCF-7 cells (human breast adenocarcinoma), NCI-H460 cells (non-small-cell lung cancer) and SF-268cells (glioblastoma cells) were cultured in a Dulbecco's modified Eagle's medium supplemented with a 10% fetal calf serum and a nonessential amino acid (Life Technologies, Inc.) and maintained at 37° C. in a humidified incubator with 5% CO2.
(§4) Human cancer cells were seeded in 96-well microtiter plates at a density of 6500, 2500 and 7500 cells/well in 100 μl of culture medium for MCF-7, NCI-H460, and SF-268, respectively. […] Cells were treated with test compounds for 3 days. Cell viability was determined by the 5-[3-(carboxymethoxy)-phenyl]-2-(4,5-dimethylthiazolyl)-3-(4-sulfophenyl)tetrazolium salt (MTS) reduction assay. Actinomycin D (10 μM, final concentration) and DMSO (0.1%, final concentration) were used as positive and vehicle controls, respectively. Results were expressed as a % of the DMSO control.

[5] = test system: NCI-H460 cells (non-small-cell lung cancer); experiment: Cytotoxicity assay (MTS reduction), NCI-H460; type: cell-based, human; conditions: 3 days, % of DMSO control
Description: as §3, §4

[6] = test system: SF-268 cells (glioblastoma cells); experiment: Cytotoxicity assay (MTS reduction), SF-268; type: cell-based, human; conditions: 3 days, % of DMSO control
Description: as §3, §4

2-[4-(3,4-Dimethoxyphenyl)isoxazol-5-yl]-5-([6-(piperidin-1-yl)hexyloxy]phenol [8b]
Cell viability (3 days, MTT) [1]: 11% | Cell cytotoxicity (3 days, LDH) [2]: 41% | Mineralization (10 days) [3]: 285% | Growth percentage MCF7 (Breast) ([4]; 4 μg/mL): 93% | Growth percentage MCF7 (Breast) ([4]; 20 μg/mL): 4% | Growth percentage NCI-H460 (Lung) ([5]; 4 μg/mL): 89% | Growth percentage NCI-H460 (Lung) ([5]; 20 μg/mL): 2% | Growth percentage SF-268 (CNS) ([6]; 4 μg/mL): 116% | Growth percentage SF-268 (CNS) ([6]; 20 μg/mL): 15%
